# Experimental data: publication PMC3743553 (Journal of child neurology, 2012)
# Tests used:
# [1] = test system: class I histone deacetylase enzymes; details: 106: histone deacetylase enzymes 1 and 3; cited from earlier work
# [2] = test system: histones H3 and H4 within intron 1 of FXN; details: chromatin immunoprecipitation; cited from earlier work
# [3] = test system: FXN messenger RNA; details: cited from earlier work; for effects on FXN messenger RNA levels: Friedreich ataxia cells
# [4] = pH = 2 and 50 °C; cited from earlier work
# [5] = test system: YG8R mouse; details: cited from earlier work
# [6] = test system: frataxin protein; details: Friedreich ataxia lymphoblast cell line; cited from earlier work
# [7] = test system: global acetylation of histone H3; details: Friedreich ataxia lymphoblast cell line; cited from earlier work
# [8] = test system: HDAC3; details: recombinant enzymes; cited from earlier work
# [9] = test system: FXN messenger RNA; test: FXN messenger RNA by qRT-PCR in Friedreich ataxia lymphoid cells; assay type: cell-based, human; details: 10 μM compound, qRT-PCR of FXN messenger RNA
# [10] = test system: KIKI (FXN 230GAA/230GAA) mouse; details: KIKI mice; cited from earlier work
# [11] = test system: histone deacetylase enzyme 2; details: relative to histone deacetylase enzymes 1 and 3; cited from earlier work
# [12] = test system: class II HDACs; details: panel of recombinant human enzymes expressed in baculovirus; cited from earlier work
# [13] = test system: FXN messenger RNA; test: FXN messenger RNA by qRT-PCR in peripheral blood mononuclear cells; assay type: cell-based, human; details: 10 μM, 48 hours
# [14] = test system: histone deacetylase enzyme 8; details: relative to histone deacetylase enzymes 1 and 3; cited from earlier work
smiles,measurement,setting,value
CC(/C=C/C(=O)NO)=C\[C@@H](C)C(=O)c1ccc(N(C)C)cc1 [trichostatin A],mechanism of inhibition,[1],"rapid-on/rapid-off, classical competitive inhibitors"
same,"histone acetylation on FXN (H3-K14, H4-K5, H4-K12 within intron 1)",[2],no effect
same,effects on FXN messenger RNA levels,[3],no effects
Cc1ccc(C(=O)NCCCCCC(=O)Nc2ccccc2N)cc1 [compound 109],t1/2 in acidic conditions,[4],6 h
same,toxicity during 5 months of treatment,[5],no overt toxicity
O=C(CCCCCCC(=O)Nc1ccccc1)NO [suberoylanilide hydroxamic acid],"histone acetylation on FXN (H3-K14, H4-K5, H4-K12 within intron 1)",[2],no effect
same,induction of frataxin protein,[6],no such activity
same,acetylated histones after washing cells free of the compounds,[7],rapidly lost
same,effects on FXN messenger RNA levels,[3],no effects
same,activator of FXN transcription in Friedreich ataxia cells,[3]; at subcytotoxic concentrations,inactive
Nc1ccccc1NC(=O)CCCCCC(=O)Nc1ccccc1 [4b],"histone acetylation on FXN (H3-K14, H4-K5, H4-K12 within intron 1)",[2],increases acetylation
Nc1ccccc1NC(=O)CCCCCCC(=O)Nc1ccccc1 [BML-210],repression of FXN in lymphoid cell lines derived from patients with Friedreich ataxia,[3],relieve repression
Cc1ccc(NC(=O)CCCCCC(=O)Nc2ccccc2N)cc1 [compound 106],preference for histone deacetylase enzyme 3 over histone deacetylase enzyme 1,[8],~10 fold
same,FXN transcription,[9],Highly active
same,global histone H3 and H4 acetylation of brain tissue,[5],increased
same,toxicity during 5 months of treatment,[5],no overt toxicity
same,motor coordination,[5]; long-term treatment,improvement
same,mechanism of inhibition,[1],slow-on/slow-off
same,frataxin levels in the nervous system and heart,[10],restored
same,histone H3 and H4 acetylation in chromatin near the GAA•TTC repeat,[10],increased
same,induction of frataxin protein,[6],potent inducer
same,activity against histone deacetylase enzyme 2,[11],much lower activity
same,activity against class II histone deacetylases,[12],little or no activity
same,acetylated histones after washing cells free of the compounds,[7],persists for several hours
same,"FXN messenger RNA, cells from patients with Friedreich ataxia",[13]; peripheral blood mononuclear cells from affected individuals,significant increases
same,"FXN messenger RNA, wild-type alleles in cells from unaffected individuals",[13]; peripheral blood mononuclear cells from unaffected individuals,only a very small effect
same,activity against histone deacetylase enzyme 8,[14],much lower activity
